In this assay the test system is MV4:11 human cancer cell lines. The experiment in a line: Cellular viability / anti-proliferative activity, CellTiter-Glo, 5 day protocol. It is filed as cell-based. The note with it: Homo sapiens, MV4-11, 120 h, read-out: GI50 on cellular proliferation of MV4:11 human cancer cell lines. Put shortly: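 Cells seeded at 200 per well (7200 cells/mL) with compound in 2-fold serial dilutions from 30 μM top (22 points), 0.3% DMSO final. Viability read by CellTiter-Glo luminescence after 5 days; GI50 from sigmoidal dose-response fit, mean of at least two replicates.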
Background: Cellular ATP, detected with luciferase, serves as a proxy for viable cell number.

[1] abbreviates: MV4:11 cells, 5 day incubation, CellTiter-Glo, mean of minimum two replicates.

Like-named read-outs stand apart in the source and are kept apart here. A value given as a limit tells only on which side of the number the result lay.

`Cc1nccn1Cc1cc2c(c(-c3cn(C)nc3C(F)(F)F)c1)CCN(CC1CCCCN1C)C2=O` (centres unmarked) [Example 171, 7-((2-Methyl-1H-imidazol-1-yl)methyl)-5-(1-methyl-3-(trifluoromethyl)-1H-pyrazol-4-yl)-2-((1-methylpiperidin-2-yl)methyl)-3,4-dihydroisoquinolin-1(2H)-one]: the GI50 under setting [1] was 6900 nM.

With `CCc1ccnc([C@H](C)N2CCc3c(cc(Cn4ccnc4C)cc3-c3cn(C)nc3C(F)(F)F)C2=O)c1` [Example 175, (S)-2-(1-(4-Ethylpyridin-2-yl)ethyl)-7-((2-methyl-1H-imidazol-1-yl)methyl)-5-(1-methyl-3-(trifluoromethyl)-1H-pyrazol-4-yl)-3,4-dihydroisoquinolin-1(2H)-one], the GI50 under setting [1] is below 50 nM.

Turning to `COc1ccnc([C@H](C)N2CCc3c(cc(Cn4ccnc4C)cc3-c3ccncc3C(F)(F)F)C2=O)c1` [Example 248, (S)-2-(1-(4-Methoxypyridin-2-yl)ethyl)-7-((2-methyl-1H-imidazol-1-yl)methyl)-5-(3-(trifluoromethyl)pyridin-4-yl)-3,4-dihydroisoquinolin-1(2H)-one], the GI50 under setting [1] was 55 nM.

`CCn1cc(-c2cc(Cn3ccsc3=N)cc3c2CCN(Cc2cc(OC)ccn2)C3=O)cn1` [Example 102, 5-(1-ethyl-1H-pyrazol-4-yl)-7-((2-iminothiazol-3(2H)-yl)methyl)-2-((4-methoxypyridin-2-yl)methyl)-3,4-dihydroisoquinolin-1(2H)-one]: under setting [1], the GI50 is above 938 nM.

With `COc1ccnc(CN2Cc3c(cc(Cn4ccn(C)c4=N)cc3-c3cccnc3C)C2=O)c1` [Example 139, 6-((2-Imino-3-methyl-2,3-dihydro-1H-imidazol-1-yl)methyl)-2-((4-methoxypyridin-2-yl)methyl)-4-(2-methylpyridin-3-yl)isoindolin-1-one], the GI50 under setting [1] is above 938 nM.

`CCn1cc(-c2cc(Cn3cnc(C)c3C)cc3c2CCN([C@@H](C)c2cc(OC)ccn2)C3=O)c(C(F)(F)F)n1` [Example 178, (S)-7-((4,5-Dimethyl-1H-imidazol-1-yl)methyl)-5-(1-ethyl-3-(trifluoromethyl)-1H-pyrazol-4-yl)-2-(1-(4-methoxypyridin-2-yl)ethyl)-3,4-dihydroisoquinolin-1(2H)-one]: the GI50 under setting [1] worked out at 152 nM.

For `Cc1nccn1Cc1cc2c(c(-c3cn(C)nc3C(F)(F)F)c1)CCN(c1ccccc1OC(F)(F)F)C2=O` [Example 255, 7-((2-Methyl-1H-imidazol-1-yl)methyl)-5-(1-methyl-3-(trifluoromethyl)-1H-pyrazol-4-yl)-2-(2-(trifluoromethoxy)phenyl)-3,4-dihydroisoquinolin-1(2H)-one], the GI50 under setting [1] turned out to be 2790 nM.

Consider `COc1ccnc([C@H](C2CC2)N2CCc3c(cc(Cn4ccnc4C)cc3-c3cn(C)nc3C)C2=O)c1` [Example 203, (S)-2-(Cyclopropyl(4-methoxypyridin-2-yl)methyl)-5-(1,3-dimethyl-1H-pyrazol-4-yl)-7-((2-methyl-1H-imidazol-1-yl)methyl)-3,4-dihydroisoquinolin-1(2H)-one], for which, under setting [1], the GI50 turned out to be 52 nM.

As to `COc1cc(CN2CCc3c(cc(Cn4ccoc4=N)cc3-c3cccnc3C(F)(F)F)C2=O)cc(OC)c1` [Example 80, 2-(3,5-Dimethoxybenzyl)-7-((2-iminooxazol-3(2H)-yl)methyl)-5-(2-(trifluoromethyl)pyridin-3-yl)-3,4-dihydroisoquinolin-1(2H)-one], the GI50 under setting [1] is below 50 nM.

On to `COc1cc(CN2CCc3c(cc(Cn4ccn(C)c4=N)cc3-c3cccnc3C(F)(F)F)C2=O)cc(OC)c1` [Example 35, 2-(3,5-Dimethoxybenzyl)-7-((2-imino-3-methyl-2,3-dihydro-1H-imidazol-1-yl)methyl)-5-(2-(trifluoromethyl)pyridin-3-yl)-3,4-dihydroisoquinolin-1(2H)-one], for which the GI50 under setting [1] was 143 nM.

On to `Cc1nccn1Cc1cc2c(c(-c3cn(C)nc3C(F)(F)F)c1)CCN(Cc1cn(C)c3ccccc13)C2=O` [Example 189, 7-((2-Methyl-1H-imidazol-1-yl)methyl)-2-((1-methyl-1H-indol-3-yl)methyl)-5-(1-methyl-3-(trifluoromethyl)-1H-pyrazol-4-yl)-3,4-dihydroisoquinolin-1(2H)-one], for which, under setting [1], the GI50 was found to be 1000 nM.

Turning to `COc1cc(CN2CCc3c(OCC4CC4)cc(Cn4ccnc4C4CC4)cc3C2=O)cc(OC)c1` [Example 19, 7-((2-Cyclopropyl-1H-imidazol-1-yl)methyl)-5-(cyclopropylmethoxy)-2-(3,5-dimethoxybenzyl)-3,4-dihydroisoquinolin-1(2H)-one], under setting [1], the GI50 is above 938 nM.

As for `COc1ccnc(CN2CCc3c(cc(Cc4ncc[nH]4)cc3-c3cn(C)nc3C(F)(F)F)C2=O)c1` [Example 132, 7-((1H-Imidazol-2-yl)methyl)-2-((4-methoxypyridin-2-yl)methyl)-5-(1-methyl-3-(trifluoromethyl)-1H-pyrazol-4-yl)-3,4-dihydroisoquinolin-1(2H)-one], the GI50 is below 50 nM.

Regarding `CCn1cc(-c2cc(Cn3ccn(C4CC4)c3=N)cc3c2CCN(Cc2cc(OC)ccn2)C3=O)cn1` [Example 50, 7-((3-Cyclopropyl-2-imino-2,3-dihydro-1H-imidazol-1-yl)methyl)-5-(1-ethyl-1H-pyrazol-4-yl)-2-((4-methoxypyridin-2-yl)methyl)-3,4-dihydroisoquinolin-1(2H)-one], the GI50 under setting [1] was above 938 nM.

Turning to `Cc1nccn1Cc1cc2c(c(-c3cn(C)nc3C(F)(F)F)c1)CCN(Cc1cc(Br)c3ccccc3n1)C2=O` [Example 204, 2-((4-Bromoquinolin-2-yl)methyl)-7-((2-methyl-1H-imidazol-1-yl)methyl)-5-(1-methyl-3-(trifluoromethyl)-1H-pyrazol-4-yl)-3,4-dihydroisoquinolin-1(2H)-one], the GI50 under setting [1] was found to be 58 nM.

As for `COc1ccnc([C@H](C2CC2)N2CCc3c(cc(Cn4ccnc4)cc3-c3cn(C)nc3C)C2=O)c1` [Example 211, (S)-7-((1H-Imidazol-1-yl)methyl)-2-(cyclopropyl(4-methoxypyridin-2-yl)methyl)-5-(1,3-dimethyl-1H-pyrazol-4-yl)-3,4-dihydroisoquinolin-1(2H)-one], the GI50 under setting [1] was determined as 84 nM.

For the compound `CCn1cc(-c2cc(CN3CCOC3=N)cc3c2CCN(Cc2cc(C)nn2C)C3=O)c(C(F)(F)F)n1` [Example 95, 2-((1,3-Dimethyl-1H-pyrazol-5-yl)methyl)-5-(1-ethyl-3-(trifluoromethyl)-1H-pyrazol-4-yl)-7-((2-iminooxazolidin-3-yl)methyl)-3,4-dihydroisoquinolin-1(2H)-one], the GI50 under setting [1] was 197 nM.

Regarding `COc1ccnc(CN2CCc3c(cc(Cn4ccn(C)c4=N)cc3-c3ccc(F)cc3C)C2=O)c1` [Example 52, 5-(4-fluoro-2-methylphenyl)-7-((2-imino-3-methyl-2,3-dihydro-1H-imidazol-1-yl)methyl)-2-((4-methoxypyridin-2-yl)methyl)-3,4-dihydroisoquinolin-1(2H)-one], under setting [1], the GI50 is below 50 nM.

Consider `COc1ccnc(CN2CCc3c(cc(Cn4ccsc4=N)cc3-c3cn(C)nc3C(F)(F)F)C2=O)c1` [Example 101, 7-((2-Iminothiazol-3(2H)-yl)methyl)-2-((4-methoxypyridin-2-yl)methyl)-5-(1-methyl-3-(trifluoromethyl)-1H-pyrazol-4-yl)-3,4-dihydroisoquinolin-1(2H)-one], for which the GI50 under setting [1] is below 50 nM.

In the case of `COc1ccnc(CN2CCc3c(cc(Cn4ccnc4C)cc3-c3cn(C)nc3C(F)(F)F)C2=O)c1` [Example 8, 2-((4-Methoxypyridin-2-yl)methyl)-7-((2-methyl-1H-imidazol-1-yl)methyl)-5-(1-methyl-3-(trifluoromethyl)-1H-pyrazol-4-yl)-3,4-dihydroisoquinolin-1(2H)-one], the GI50 under setting [1] was below 50 nM.

On to `Cc1cccc(CN2CCc3c(cc(Cn4ccnc4C)cc3-c3cn(C)nc3C(F)(F)F)C2=O)c1` [Example 209, 7-((2-Methyl-1H-imidazol-1-yl)methyl)-5-(1-methyl-3-(trifluoromethyl)-1H-pyrazol-4-yl)-2-(3-methylbenzyl)-3,4-dihydroisoquinolin-1(2H)-one], for which the GI50 under setting [1] stood at 85 nM.

On to `O=C1c2cc(Cn3ccnc3)ccc2CCN1Cc1cc(Cl)cc(Cl)c1` [Example 1, 7-((1H-Imidazol-1-yl)methyl)-2-(3,5-dichlorobenzyl)-3,4-dihydroisoquinolin-1(2H)-one], for which the GI50 under setting [1] was determined as 239 nM.

With `Cc1cc([C@H](C)N2CCc3c(cc(Cn4ccn(C)c4=N)cc3-c3cn(C)nc3C(F)(F)F)C2=O)ccc1F` [Example 79, (S)-2-(1-(4-Fluoro-3-methylphenyl)ethyl)-7-((2-imino-3-methyl-2,3-dihydro-1H-imidazol-1-yl)methyl)-5-(1-methyl-3-(trifluoromethyl)-1H-pyrazol-4-yl)-3,4-dihydroisoquinolin-1(2H)-one], the GI50 under setting [1] is below 50 nM.

Turning to `COc1ccnc([C@H](C)N2CCc3c(cc(Cn4ccn(C(F)F)c4=N)cc3-c3cn(C)nc3C(F)(F)F)C2=O)c1` [Example 72, (S)-7-((3-(Difluoromethyl)-2-imino-2,3-dihydro-1H-imidazol-1-yl)methyl)-2-(1-(4-methoxypyridin-2-yl)ethyl)-5-(1-methyl-3-(trifluoromethyl)-1H-pyrazol-4-yl)-3,4-dihydroisoquinolin-1(2H)-one], the GI50 under setting [1] was below 50 nM.

Consider `COc1ccnc(CN2CCc3c(cc(Cn4ccoc4=N)cc3-c3cn(C)nc3C)C2=O)c1` [Example 85, 5-(1,3-Dimethyl-1H-pyrazol-4-yl)-7-((2-iminooxazol-3(2H)-yl)methyl)-2-((4-methoxypyridin-2-yl)methyl)-3,4-dihydroisoquinolin-1(2H)-one], for which the GI50 under setting [1] is 57 nM.

Consider `Cc1cc([C@H](C)N2CCc3c(cc(Cn4ccnc4C)cc3-c3cn(C)nc3C(F)(F)F)C2=O)ncc1F` [Example 163, (S)-2-(1-(5-fluoro-4-methylpyridin-2-yl)ethyl)-7-((2-methyl-1H-imidazol-1-yl)methyl)-5-(1-methyl-3-(trifluoromethyl)-1H-pyrazol-4-yl)-3,4-dihydroisoquinolin-1(2H)-one], for which, under setting [1], the GI50 is below 50 nM.

For the origin of these results see patent publication US11999716B2, “WDR5 inhibitors and modulators” (priority 2018, dated 2024).
